The values that follow come from PubChem BioAssay (NCI).

Molecules are shown by their SMILES.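 Where inhibition never reached the appropriate level, the endpoint shown equals the highest concentration tested. Otherwise, values were interpolated linearly from a five-concentration, 48-hour dose response in 96-well plates. GI50 = concentration required for 50% inhibition of growth. At the TGI there is no net growth.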 Bounds are passed on as bounds.

Assay in all cases: DTP human tumour cell line panel, 48 h
The test system of assay [1] is A549 NSCLC.
For assay [2], the system named is ACHN renal.
The test system of assay [3] is EKVX NSCLC.
Assay [4] deals with HL-60(TB) leukemia.
Assay [5] deals with IGROV1 ovarian.
Assay [6] relates to NCI-H522 lung.
Assay [7] relates to SF-295 CNS.
The subject of assay [8] is TK-10 renal.
The test system of assay [9] is U251 CNS.
Assay [10] has as its system CAKI-1 renal.

In the case of `CC(NC1CCC[C@H]1O)c1ccccc1` (mixture of isomers), the TGI in assay [1], in assay [2], in [3], in assay [4], in assay [5] and in assay [6] was over 100 µM each time. Also, the TGI in [7], in assay [8] and in assay [9] was over 100 µM in each case.

As for `Nc1ccc(-c2ccc(-c3nc4ccccc4[nH]3)cc2)cc1`, the TGI is over 95.5 µM in assay [1]; over 92.8 µM in assay [2]; over 54.7 µM in assay [10]; over 78.2 µM in [3]; over 82.4 µM in assay [5]; over 53.9 µM in assay [6]. The TGI in assay [8] was over 100 µM; in [9], 44.5 µM. The GI50 in [2] was 13.6 µM; in assay [3], 1.47 µM; in [5] it was 26.2 µM; in [6] it was 1.1 µM; in assay [9], 11.4 µM.

As to `C=C(CO)CC(O)c1ccccc1` (stereo not given), the concentration for total growth inhibition (TGI) in [1], in assay [2], in assay [3], in assay [4], in assay [5] and in assay [6] was over 100 µM in each case. Also, the TGI in [7], in assay [8] and in assay [9] was over 100 µM throughout.

Turning to `COC1OC(C)C(OC(=O)C(C)(C)C)C(C)(O)C1O` (stereo not given), the TGI in [1], in assay [10], in [4], in [5], in [6] and in [7] was over 100 µM each time. For the same compound, the TGI in [8] and in assay [9] was over 100 µM in each case.

Consider `C=C(C)C1CC[C@]2(C(=O)O)CCC3(C)[C@H](CCC4[C@@]5(C)CC[C@H](OC6OC(CO)C(O)C6OC6OC(C)C(O)C(O)C6O)[C@@](C)(CO)C5CC[C@]43C)C12` (stereo not given in full), for which the TGI in [1], in [2], in assay [3], in assay [4], in assay [5] and in assay [6] was over 100 µM throughout. For the same compound, the concentration for total growth inhibition (TGI) in [7], in assay [8] and in assay [9] was over 100 µM throughout.

For the compound `CC(=O)O[C@H]1CCC2[C@@H]3CCC4C(=O)c5oncc5C[C@]4(C)C3CC[C@@]21C` (stereo not given in full), the TGI in assay [1], in assay [2], in [3], in assay [4], in assay [5] and in assay [7] was over 100 µM in each case. Moreover, the TGI in assay [8] and in assay [9] was over 100 µM in each case.

For `Cc1cc(N2CCN(C)CC2)nc(NC2CCCC(Nc3ccnc4cc(Cl)ccc34)C2)n1` (stereo not given), the GI50 is 3.14 µM in assay [1]; 1.86 µM in assay [2]; 2.81 µM in [3]; 2.09 µM in assay [4]; 2.24 µM in assay [5]; 2.29 µM in [6]. The figures for the GI50 in [7], in assay [8] and in [9] were 1.68 µM, 1.81 µM and 2.02 µM, respectively. Moreover, the TGI came out at 11 µM in [1]; 3.51 µM in assay [2]; 12.5 µM in [3]; 4.09 µM in assay [4]; 7.85 µM in [5]; 5.3 µM in assay [6]. Moreover, the TGI in assay [7] was 3.25 µM; in assay [8], 3.63 µM; in assay [9], 4.33 µM.

In the case of `CCOC(=O)c1cc(C(=O)c2cc(OC)cc(OC)c2)n2ncccc12`, the GI50 was 11.1 µM in assay [1]; 12.2 µM in [2]; 2.97 µM in assay [10]; 4.74 µM in assay [3]; 1.38 µM in assay [4]; 7.12 µM in assay [5]. The GI50 in assay [7] is 2.1 µM; in [8], 9.78 µM; in assay [9] it was 2 µM. Besides, the TGI is over 100 µM in assay [1]; over 100 µM in assay [2]; over 100 µM in [10]; over 100 µM in [3]; 4.66 µM in assay [4]; over 100 µM in [5]. The TGI in assay [7], in assay [8] and in assay [9] was over 100 µM in each case.

For the compound `C[C@]12CC[C@@H]3c4ccc(O)cc4CC[C@H]3[C@@H]1CC[C@@H]2NS(=O)(=O)c1cccc(Br)c1`, the GI50 in assay [1] is 3.11 µM; in [2], 2.91 µM; in [10] it was 2.99 µM; in [5], 4.04 µM; in [6] it was 2.36 µM; in [7], 3.19 µM. Further, the figures for the GI50 in assay [8] and in assay [9] were 3.43 µM and 3.23 µM, respectively. The TGI in assay [1] was determined as 13.1 µM; in assay [2] it was 8.61 µM; in assay [10] it was 11 µM; in [5] it was 16.5 µM; in assay [6] it was 11.4 µM; in [7], 11.7 µM. In addition, the TGI stood at 12.1 µM in assay [8] and 11 µM in assay [9].

`O=C=Nc1ccc(Cc2ccc(N=C=O)cc2)cc1` (tested in a mixture with another compound): the GI50 in assay [1], in [2], in [10], in [3], in assay [5] and in assay [6] was over 25 µg/mL each time. Moreover, the GI50 in assay [7], in assay [8] and in assay [9] was over 25 µg/mL in each case. In addition, the TGI in [1], in assay [2], in assay [10], in [3], in assay [5] and in [6] was over 25 µg/mL in each case. Also, the TGI in [7], in [8] and in [9] was over 25 µg/mL throughout.

Consider `COc1ccc(C(=O)C(C(=O)C(=O)Nc2nc3ccc(OC)cc3s2)c2ccc(OC)cc2)cc1` (stereo not given), for which the TGI in assay [1], in assay [2], in [10], in [3], in [4] and in assay [5] was over 100 µM each time. The TGI in [7], in assay [8] and in assay [9] was over 100 µM in each case.
